Data set [1] relates to tumor lesions and normal tissue of cancer patients. Description: Clinical PET/CT imaging in cancer patients (SUV). It counts as in vivo, human. As for the experimental part:
Diagnostic imaging of more than 100 patients was performed under the conditions of the updated declaration of Helsinki, § 37 (Unproven interventions in clinical practice) and in accordance to the German Pharmaceuticals Law § 13 (2b) for medical reasons using either ^68Ga-FAPI-02 or -04, which was applied intravenously (20 nmol, 122-336 MBq), 10 min, 1 and 3 hours post tracer administration. Variation of injected radiotracer activity is due to the short half-life of ^68Ga and the variable elution efficiencies obtained during the lifetime of the ^68Ge/^68Ga generator. […] The PET/CT scans were performed with a Biograph mCT Flow™ PET/CT-Scanner (Siemens Medical Solution) using the following parameters: slice thickness of 5 mm, increment of 3-4 mm, soft-tissue reconstruction kernel, care dose. Immediately after CT scanning, a whole-body PET was acquired in 3D (matrix 200×200) in FlowMotion™ with 0.7 cm/min. The emission data were corrected for random, scatter and decay. Reconstruction was conducted with an ordered subset expectation maximisation (OSEM) algorithm with 2 iterations/21 subsets and Gauss-filtered to a transaxial resolution of 5 mm at full-width half-maximum (FWHM). Attenuation correction was performed using the low-dose non-enhanced CT data. The quantitative assessment of standardized uptake values (SUV) was done using a region of interest technique.
For the normal tissue of 16 organs, a 2 cm Spheric-VOI was placed in the parenchyma, for tumor lesions a threshold segmented VOI was used to quantify SUVmean/max^3.

The target in data set [2] is human CD26 (Homo sapiens (Human), UniProt P27487). Description: Radioligand binding to CD26 expressing cells (HEK-CD26). The following applies: 60 min incubation. As for the experimental part:
In vitro binding studies were performed using the human tumor cell lines BxPC3, Capan-2, MCF-7 (purchased from Sigma Aldrich Chemie GmbH) and SK-LMS-1 (purchased from ATCC) as well as stably transfected FAP-cell lines HT-1080-FAP, HEK-muFAP and the CD26 expressing cell line HEK-CD26 (obtained from Stefan Bauer, NCT Heidelberg). All cells were cultivated in Dulbecco's modified Eagle's medium (DMEM) containing 10% fetal calf serum at 37° C./5% carbon dioxide. For fluorescence internalization experiments, cells were seeded on coverslips and stained with FAPI-02-Atto488 and DAPI for cell nucleus staining. Images were acquired on a laser scanning confocal microscope using a 63× oil immersion objective.
For radioligand binding studies, cells were seeded in 6-well plates and cultivated for 48 h to a final confluence of approx. 80-90% (1.2-2 mio cells/well). The medium was replaced by 1 mL fresh medium without fetal calf serum. The radiolabeled compound was added to the cell culture and incubated for different time intervals ranging from 10 min to 24 h. Competition experiments were performed by simultaneous exposure to unlabeled (10^−5 M to 10^−9 M) and radiolabeled compound for 60 min. […] Radioactivity was determined in a γ-counter (Cobra II, Packard), normalized to 1 mio cells and calculated as percentage of the applied dose (% ID). […]

Data set [3] in a line: Preliminary dosimetry estimate in patients. It counts as in vivo, human.
Data set [4] relates to HT-1080-FAP cells. Description: Radioligand binding and internalization in HT-1080-FAP cells. The format is cell-based, human. As for the experimental part:
Radioligand binding studies were performed using HT-1080-FAP cells. The radiolabeled compound was added to the cell culture and incubated for different time intervals ranging from 10 min to 24 h. Competition experiments were performed by simultaneous exposure to unlabeled (10^−5 M to 10^−9M) and radiolabeled compound for 60 min. For efflux experiments, radioactive medium was removed after incubation for 60 min and replaced by non-radioactive medium for time intervals ranging from 1 to 24 h. For internalization experiments, surface bound activity was removed by incubating the cells with 1 M glycine-HCl buffer for 10 min. The radioactivity was measured using a γ-counter, normalized to 1 mio cells and calculated as percentage of applied dose (% ID).
For radioligand binding studies, cells were seeded in 6-well plates and cultivated for 48 h to a final confluence of approx. 80-90% (1.2-2 mio cells/well). The medium was replaced by 1 mL fresh medium without fetal calf serum. The radiolabeled compound was added to the cell culture and incubated for different time intervals ranging from 10 min to 24 h. Competition experiments were performed by simultaneous exposure to unlabeled (10^−5 M to 10^−9 M) and radiolabeled compound for 60 min. For efflux experiments, radioactive medium was removed after incubation for 60 min and replaced by non-radioactive medium for time intervals ranging from 1 to 24 h. In all experiments, the cells were washed with 1 mL phosphate-buffered saline pH 7.4 for 2 times and subsequently lysed with 1.4 ml lysis buffer (0.3 M NaOH, 0.2% SDS). Radioactivity was determined in a γ-counter (Cobra II, Packard), normalized to 1 mio cells and calculated as percentage of the applied dose (% ID). Each experiment was performed 3 times, and 3 repetitions per independent experiment were acquired.
For internalization experiments the cells were incubated with the radiolabeled compound for 60 min at 37° C. and 4° C. Cellular uptake was terminated by removing medium from the cells and washing 2 times with 1 mL PBS. Subsequently, cells were incubated with 1 mL of glycine-HCl (1 Min PBS, pH 2.2) for 10 min at room temperature to remove the surface bound activity. The cells were washed with 2 mL of ice-cold PBS and lysed with 1.4 mL of lysis buffer to determine the internalized fraction. For the cells incubated at 4° C., all washing and elution steps were carried out using ice-cold buffers. The radioactivity was measured using a γ-counter, normalized to 1 mio cells and calculated as percentage of applied dose (% ID).

Setting [5] is: 1 h p.i., intra-individual comparison of 6 patients.

Chain of human CD26 (P27487 whole entry): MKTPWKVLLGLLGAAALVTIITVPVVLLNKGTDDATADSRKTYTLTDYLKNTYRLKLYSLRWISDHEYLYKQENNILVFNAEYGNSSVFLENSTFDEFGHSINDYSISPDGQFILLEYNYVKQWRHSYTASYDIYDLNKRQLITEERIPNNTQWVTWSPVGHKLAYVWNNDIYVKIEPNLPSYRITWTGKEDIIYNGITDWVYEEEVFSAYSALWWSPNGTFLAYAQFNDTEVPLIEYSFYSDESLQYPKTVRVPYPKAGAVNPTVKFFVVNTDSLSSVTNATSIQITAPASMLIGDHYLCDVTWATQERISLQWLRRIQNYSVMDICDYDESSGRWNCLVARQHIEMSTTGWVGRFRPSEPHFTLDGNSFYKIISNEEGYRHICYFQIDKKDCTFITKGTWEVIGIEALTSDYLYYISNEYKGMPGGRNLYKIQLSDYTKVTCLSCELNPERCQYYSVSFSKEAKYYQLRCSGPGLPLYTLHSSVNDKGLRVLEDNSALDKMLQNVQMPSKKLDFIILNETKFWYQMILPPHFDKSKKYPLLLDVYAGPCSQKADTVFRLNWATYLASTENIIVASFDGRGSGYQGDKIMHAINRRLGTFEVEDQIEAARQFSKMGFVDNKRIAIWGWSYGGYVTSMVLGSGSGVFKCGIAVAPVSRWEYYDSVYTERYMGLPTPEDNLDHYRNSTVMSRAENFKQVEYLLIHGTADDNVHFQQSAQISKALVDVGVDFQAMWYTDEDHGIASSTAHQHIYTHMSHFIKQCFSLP

As for `N#C[C@@H]1CCCN1C(=O)CNC(=O)c1ccnc2ccc(OCCCN3CCN(C(=O)CN4CCN(CC(=O)O)CCN(CC(=O)O)CCN(CC(=O)O)CC4)CC3)cc12` [FAPI-02], the “maximum SUV values in primary tumor, lymph node and bone metastases” value in data set [1] (68Ga labeled, 1 h after i.v. administration, patients) is listed as at most 48.0. In addition, in data set [1] (setting [5]), the “background uptake in brain” value amounted to 0.32; the “background uptake in liver” value was 1.69; the “background uptake in oral/pharyngeal mucosa” value is on record as 2.57; the “tumor uptake, average SUV max” value is reported as 7.37. Also, in data set [1] (from 1 h to 3 h p.i., patients), the “decrease of tumor uptake (washout)” value was 75%. Besides, the “binding to CD26 expressing cells (% ID)” value in data set [2] is reported as 0.13±0.01%. Also, the “equivalent dose of an exam” value in data set [3] (200 MBq Ga-68) is 3-4 mSv. Moreover, in data set [3] (calculated with IDAC1/ICRP60), the effective dose is given as 1.82E-02 mSv/MBq. In addition, the effective dose in data set [3] (calculated with IDAC2/ICRP103) is 1.79E-02 mSv/MBq. For the same compound, the effective dose in data set [3] (calculated with OLINDA) is recorded as 1.80E-02 mSv/MBq. Moreover, the “activity remaining after 24 h of incubation relative to initial radioactivity” value in data set [4] (24 h incubation, FAPI-01 compared to binding after 10 min) came out at 34%. In addition, in data set [4] (Lu-177 labeled, after 60 min), the “internalized proportion of uptake” value stood at 96% and the “uptake into FAP-α expressing cells” value is recorded as 20.15±1.74 % ID.

The values above are taken from patent US20250127937A1, “FAP INHIBITOR” (UNIVERSITÄT HEIDELBERG, priority 2018, published 2025).
